The text below walks through data of patent US20240382480A1, “PHARMACEUTICAL COMPOSITION CONTAINING JAK3/JAK1/TBK1 SELECTIVE INHIBITOR AND MEDICAL USE THEREOF” (SHENZHEN CHIPSCREEN BIOSCIENCES CO., LTD., priority 2021, published 2024).

Holding throughout (assay type): in vivo
For one data set, the system named is normal animals. Description: Spleen weight in normal animals. The following applies: no dose or method printed.
The subject of data set [1] is C57BL/6J mice with alopecia areata. Description: Alopecia areata mouse model, oral gavage. The following applies: 80 mg/kg twice a day oral gavage for 23 d. The protocol: Drug preparation: appropriate amount of powder of test sample was weighed accurately and put in a sample preparation tube, then add purified water was added and sonification was performed until the sample was completely dissolved. A concentration of 8 mg/ml (based on active ingredient) was prepared, and it was administered within 15 minutes after preparation.
Experimental animals: 16 C57BL/6J mice with alopecia areata, female, 12 weeks old. They were purchased from Beijing Vital River Laboratory Animal Technology Co., Ltd. Animal inclusion criteria: mice with patchy and traceless hair loss, mainly with back hair loss and head hair loss.
Grouping and criteria: 14 C57BL/6J mice were enrolled in the groups, and 5 mice in the model group, 9 mice in the administration group (test sample). The overall situation of hair loss in the administration group was more serious than that in the model group.
Administration information: administration group: single dose: 80 mg/kg (based on active ingredient) twice a day for 23 d continuously; model group: equal doses of vehicle given. Method of administration: oral gavage.
Record of change rate of body weight and alopecia areata area: measured twice a week, weighed and observed with naked eyes on Monday and Thursday.
Spleen size and weight: at the end of the test, the body weight of mice was weighed, and then the mice were subjected to gross anatomy, the spleen of the mice was observed and weighed to calculate the spleen/body weight ratio of mice.

The test system of a further data set is Balb/c mice. Put plainly: DNCB-induced atopic dermatitis model in mice, oral gavage. The following applies: 50 mg/kg twice a day oral gavage, vs model group. The protocol:
Drug preparation: appropriate amount of powder of sample for test was weighed accurately and put in a sample preparation tube. Purified water was added and sonication was performed until the sample was completely dissolved, and a concentration of 5 mg/ml (based on active ingredient) was prepared, and it was administered within 15 minutes after preparation.
Experimental animals: Balb/c mice were purchased from Sichuan Academy of Traditional Chinese Medicine, 27 mice in total.
Grouping: Balb/c mice (27 mice in total) were randomly divided into three groups, 9 mice in each group, which were blank group, model group and administration group respectively.
Modeling: 300 μl of 1% DNCB was applied to the abdomen of mice in the model group and administration group, and 0.5% DNCB was applied to the ears every other day after 7 d, and lasted for 31 days.
Administration: administration was carried out after 12 days of modeling. Administration group: dosage and frequency of administration: 50 mg/kg (based on active ingredient), twice a day. Model group: the same dose of vehicle was given. The administration cycle was 3 weeks (12 d-31 d). The method of administration: oral gavage.
• (1) General observation: ear thickness and spleen/body weight ratio. At the end point of the test, the body weight of mice was weighed, and the left and right ear thickness (mm) of mice was measured, and then the mice were subjected to gross anatomy, and the spleen of mice was weighed to calculate the spleen/body weight ratio of mice. • (2) Serum: IgE. At the end point of the test, blood was collected from the orbit of mice, and the total IgE in the serum of mice was detected (ELISA method). • (3) Histopathology: HE staining of the ear (to measure ear epidermal thickness) and toluidine blue staining (to measure the number of mast cells in the ear epidermis).
HE staining of ears: the fixed mouse ear tissue was dehydrated by automatic dehydrator and embedded, and then sliced. After dewaxing the slices to water, hematoxylin staining was performed until blue appeared; after elution, eosin staining was performed for sealing, and finally microscopy and image acquisition were carried out.
The above specimens were subjected to the procedures of dehydration, trimming, embedding, slicing, staining, sealing, and other procedures, and finally microscopy and image acquisition were carried out.

Where [2] appears, read: end point, vs model group, p<0.05.

With `C=CC(=O)N(C)c1cc(Nc2ncc(Cl)c(NCCCNC(=O)c3ccc(C#N)cc3)n2)ccc1F` [test sample, N-(3-((5-chloro-2-((4-fluoro-3-(N-methylacrylamido)phenyl)amino)-4-pyrimidinyl)amino)propyl)-4-cyanobenzamide], in the data set on normal animals, the “weight of spleen in normal animals” value is “does not reduce the weight of spleen”. Also, in data set [1] (setting [2]), the spleen weight result is “significantly lower” and the spleen/body weight ratio result is “significantly lower”. Also, the alopecia areata area result in data set [1] (better than model group (vehicle), p<0.01) is listed as “significantly ameliorated”. Besides, in the data set on Balb/c mice (3 weeks (12 d-31 d), end point, # p<0.05), the spleen/body weight ratio entry is “significantly reduced”. For the same molecule, the ear epidermal thickness entry in the data set on Balb/c mice (3 weeks, HE staining, # p<0.05) is “significantly decreased”. For the same molecule, the “serum IgE level” value with Balb/c mice (3 weeks, end point, ELISA, ## p<0.01) is reported as “significantly decreased”. The “ear thickness (including the left ear and the right ear)” value in the data set on Balb/c mice (3 weeks, end point, # p<0.05) is given as “significantly reduced”. In addition, the “number of mast cells in ear epidermis” value in the data set with Balb/c mice (3 weeks, toluidine blue staining, # p<0.05) was “significantly decreased”.
